Measurements published in US20220096529A1, “2-HYDROXYPROPYL-BETA-CYCLODEXTRIN (HPBETACD) FOR USE IN THE TREATMENT OF BREAST CANCER” (UNIVERSITY OF THE WITWATERSRAND, JOHANNESBURG, priority 2019, published 2022).

Experiments:
Format in all cases: cell-based, human
MCF7 cells [1] = experiment: Cell-APOPercentage apoptosis assay; conditions: MCF7, 10 μM Plumbagin, 24 hrs
Method: (§1) APOPercentage assays gives a measure of overall apoptosis in the cell. Apoptosis is an early event and therefore just one time point (24 hrs) was selected and tested on four cell lines MCF7, MDA-MB-231, MRC-5 & HEK-293 cells. 10 μM Plumbagin was used a positive control as opposed to 40 μM from MTT because higher concentrations of plumbagin was way too toxic for the cells and to capture the early activity, optimal dosage was required. To confirm the growth inhibition obtained from the MTT assay was actually due to apoptosis, a Cell-APOPercentage Apoptosis assay was performed according to known methods.

MDA-MB-231 cells [2] = experiment: Cell-APOPercentage apoptosis assay; conditions: MDA-MB-231, 10 μM Plumbagin, 24 hrs
Method: as §1

MCF7 cells [3] = experiment: Caspase 3/7 assay; conditions: MCF7, 40 μM Plumbagin, 24 hrs
Method: (§2) The final step in apoptosis following the intrinsic pathway is the activation of executioner caspases like caspase 3 and caspase 7 […]. Therefore, to confirm that cell death was due to the mitochondrial mediated pathway of apoptosis a Caspase 3/7 assay was conducted. Caspases are activated in response to a myriad of cellular death stimuli and they dismantle the cell. Caspase 3 and caspase 7 contribute to the majority of proteolytic cleavage occurring in apoptosis. As a final step to confirm and validate apoptosis via the mitochondrial intrinsic pathway, the Caspase 3/7 assay was conducted on three cell lines: MCF7, MDA-MB-231 & HEK-293. HPβCD and positive (40 μM PL) were treated for 24 hrs. The percentage of dead/apoptotic cells are clearly indicated in specific corners of each quadrants in the above plots.

MDA-MB-231 cells [4] = experiment: Caspase 3/7 assay; conditions: MDA-MB-231, 40 μM Plumbagin, 24 hrs
Method: as §2

HEK-293 cells = experiment: Caspase 3/7 assay; conditions: HEK-293, 40 μM Plumbagin, 24 hrs
Method: as §2

MCF7 cells [5] = experiment: MTT growth inhibition assay; conditions: Homo sapiens, MCF7, 40 μM Plumbagin
Method: (§3) Cells were cultured in appropriate medium supplemented with 10% FCS, penicillin (100 U/ml), and streptomycin (100 μg/ml) (Gibco) at 5% CO2 in a 37° C. incubator.
(§4) Four different cell lines were used MCF7 (ER+). MDA-MB-231 (ER−), MRC-5 (Lung Fibroblasts) and HEK-293 (Embryonic kidney). MRC-5 and/or HEK-293 were used as control cell lines depending on availability.
(§5) In order to determine whether HPβCD has the ability to induce cancer cell death a primary screening using an MTT assay was performed. Three different time points 24 hrs.

MDA-MB-231 cells [6] = experiment: MTT growth inhibition assay; conditions: Homo sapiens, MDA-MB-231, 40 μM Plumbagin
Method: as §3, §4, §5

MCF7 cells [7] = experiment: Mitochondrial outer membrane potential assay (MOMP); conditions: MCF7, 10 mM, 24 hrs
Method: (§6) One of the key hallmarks of apoptosis is the loss of mitochondrial membrane potential. To investigate that aspect we did a MOMP assay which validates our Cell-APOPercentage assay. This assay was tested on three cell lines MCF7, MDA-MB-231 & MRC-5. The top right and bottom hand quadrants of each plot represents healthy (FL2-A) and apoptotic (FL1-A) cells respectively (see FIGS. 13 to 15).
(§7) From the results obtained from MTT (IC50 values) and Cell-APOPercentage assays it was quite evident that ˜10 mM HPβCD caused cellular growth inhibition through apoptosis in cancer cells and had little or no effect in normal cells. Therefore, we selected just 10 mM HPβCD going forward as the only working concentration for HPβCD treatment. 24 hrs time point was selected (HPβCD & 10 mM H2O2) because mitochondrial membrane potential loss is an early cellular event.

MDA-MB-231 cells [8] = experiment: as above; conditions: MDA-MB-231, 10 mM, 24 hrs
Method: as §6, §7

MCF7 cells [9] = experiment: ROS assay; conditions: MCF7, 10 mM, 24 hrs
Method: (§8) To further validate the occurrence of apoptosis and to investigate the exact mechanisms if apoptosis, a ROS assay was conducted to capture the production of ROS. […] In order to be in solidarity with this fact, a ROS assay was performed in three cell lines: MCF7, MDA-MB-231 & MRC-5. Like before, HPβCD and the positive (10 mM H2O2) were treated for 24 hrs. The right hand section in each plot represents the production of ROS.

MDA-MB-231 cells [10] = experiment: ROS assay; conditions: MDA-MB-231, 10 mM, 24 hrs
Method: as §8

MRC-5 cells = experiment: ROS assay; conditions: MRC-5, 10 mM, 24 hrs
Method: as §8

Structure (SMILES)	apoptosis (MCF7 cells [1])	apoptosis (MDA-MB-231 cells [2])	Total Apoptotic (caspase 3/7) (MCF7 cells [3])	Total Apoptotic (caspase 3/7) (MDA-MB-231 cells [4])	Total Apoptotic (caspase 3/7) (HEK-293 cells)	Total Apoptotic (caspase 3/7) (HEK-293 cells; listed as PL)	inhibition at 40 µM (MCF7 cells [5]; 24 hrs)	inhibition at 40 µM (MCF7 cells [5]; 48 hrs)	inhibition at 40 µM (MCF7 cells [5]; 72 hrs)	inhibition at 40 µM (MDA-MB-231 cells [6]; 24 hrs)	inhibition at 40 µM (MDA-MB-231 cells [6]; 48 hrs)	inhibition at 40 µM (MDA-MB-231 cells [6]; 72 hrs)	apoptotic population (loss of mitochondrial membrane potential) (MCF7 cells [7])	apoptotic cells / cell death (loss of mitochondrial membrane potential) (MDA-MB-231 cells [8])	ROS generation (MCF7 cells [9])	ROS generation (MDA-MB-231 cells [10])	ROS generation (MRC-5 cells)
CC1=CC(=O)c2c(O)cccc2C1=O [Plumbagin, reference compound]	~90%	~90%	23.55%	80.45%	72.40%	72.4%	~80%	~90%	~100%	~85%	~92%	~95%					
OO [H2O2, reference compound]													92.1%	92.4%	88.5%	73%	64.1%
